Assay results published in the NIST ThermoML archive (doi:10.1021/je800348s).
± gives the expanded uncertainty stated by the source.

Legend:
[1] = 101 kPa, Liquid; for mass density: Vibrating tube method
[2] = xn = mol fraction of the nth substance listed; conditions: 101 kPa, Liquid, x1 = 1; for mass density: Vibrating tube method

SMILES | viscosity ([1]; 293.15 K) | mass density ([1]; 293.15 K) | viscosity ([1]; 298.15 K) | mass density ([1]; 298.15 K) | viscosity ([1]; 303.15 K) | mass density ([1]; 303.15 K) | viscosity ([1]; 313.15 K) | mass density ([1]; 313.15 K) | mass density ([2]; 293.15 K) | viscosity ([2]; 293.15 K) | mass density ([2]; 298.15 K) | viscosity ([2]; 298.15 K) | mass density ([2]; 303.15 K) | viscosity ([2]; 303.15 K) | mass density ([2]; 313.15 K) | viscosity ([2]; 313.15 K)
CCCCCCCCCC [decane] | 0.9491 ± 0.024 mPa·s | 730 ± 8 kg/m3 | 0.8434 ± 0.022 mPa·s | 726.4 ± 8 kg/m3 | 0.8172 ± 0.021 mPa·s | 722.5 ± 8 kg/m3 | 0.7851 ± 0.02 mPa·s | 715.4 ± 8 kg/m3 | – | – | – | – | – | – | – | –
CCCCCCCCCC [decane] + C1C[C@@H]2[C@H]3CC[C@H](C3)[C@@H]2C1 | – | – | – | – | – | – | – | – | 730 ± 8 kg/m3 | 0.9491 ± 0.024 mPa·s | 726.4 ± 8 kg/m3 | 0.8434 ± 0.022 mPa·s | 722.5 ± 8 kg/m3 | 0.8172 ± 0.021 mPa·s | 715.4 ± 8 kg/m3 | 0.7851 ± 0.02 mPa·s
C1C[C@@H]2[C@H]3CC[C@H](C3)[C@@H]2C1 [exo-tetrahydrodicyclopentadiene] | 3.064 ± 0.077 mPa·s | 935.2 ± 8 kg/m3 | 2.74 ± 0.069 mPa·s | 931.4 ± 8 kg/m3 | 2.514 ± 0.063 mPa·s | 927.7 ± 8 kg/m3 | 2.27 ± 0.057 mPa·s | 922.2 ± 8 kg/m3 | – | – | – | – | – | – | – | –

The remaining lines, values ahead:

viscosity ([1]; 293.15 K) | mass density ([1]; 293.15 K) | viscosity ([1]; 298.15 K) | mass density ([1]; 298.15 K) | viscosity ([1]; 303.15 K) | mass density ([1]; 303.15 K) | viscosity ([1]; 313.15 K) | mass density ([1]; 313.15 K) | mass density ([2]; 293.15 K) | viscosity ([2]; 293.15 K) | mass density ([2]; 298.15 K) | viscosity ([2]; 298.15 K) | mass density ([2]; 303.15 K) | viscosity ([2]; 303.15 K) | mass density ([2]; 313.15 K) | viscosity ([2]; 313.15 K) | SMILES
0.5439 ± 0.015 mPa·s | 702.5 ± 8 kg/m3 | 0.5177 ± 0.015 mPa·s | 698.5 ± 8 kg/m3 | 0.4795 ± 0.014 mPa·s | 694.5 ± 8 kg/m3 | 0.4358 ± 0.013 mPa·s | 686.3 ± 8 kg/m3 | – | – | – | – | – | – | – | – | CCCCCCCC [octane]
– | – | – | – | – | – | – | – | 702.5 ± 8 kg/m3 | 0.5439 ± 0.015 mPa·s | 698.5 ± 8 kg/m3 | 0.5177 ± 0.015 mPa·s | 694.5 ± 8 kg/m3 | 0.4795 ± 0.014 mPa·s | 686.3 ± 8 kg/m3 | 0.4358 ± 0.013 mPa·s | CCCCCCCC [octane] + C1C[C@@H]2[C@H]3CC[C@H](C3)[C@@H]2C1
